From patent publication US8173813B2, “Quinolone and tetrahydroquinolone and related compounds having NOS inhibitory activity” (NeurAxon, Inc., priority 2007, dated 2012)
Where “and” joins values, the source holds several entries; their conditions need not be identical. Equal values may be shown once. Where a name gives a salt, the structure may show the parent alone. Read-outs that look alike come from different tables or passages of the source.

Tests used:
Assay type in all cases: biochemical
eNOS (Rat) = eNOS (Rat) (Rattus norvegicus, UniProt Q62600); assay: eNOS (Rat) enzyme assay; settings: values in parentheses, read-out: eNOS IC50 (rodent data in parentheses)
Sequence of eNOS (Rat) (Q62600 2-1202): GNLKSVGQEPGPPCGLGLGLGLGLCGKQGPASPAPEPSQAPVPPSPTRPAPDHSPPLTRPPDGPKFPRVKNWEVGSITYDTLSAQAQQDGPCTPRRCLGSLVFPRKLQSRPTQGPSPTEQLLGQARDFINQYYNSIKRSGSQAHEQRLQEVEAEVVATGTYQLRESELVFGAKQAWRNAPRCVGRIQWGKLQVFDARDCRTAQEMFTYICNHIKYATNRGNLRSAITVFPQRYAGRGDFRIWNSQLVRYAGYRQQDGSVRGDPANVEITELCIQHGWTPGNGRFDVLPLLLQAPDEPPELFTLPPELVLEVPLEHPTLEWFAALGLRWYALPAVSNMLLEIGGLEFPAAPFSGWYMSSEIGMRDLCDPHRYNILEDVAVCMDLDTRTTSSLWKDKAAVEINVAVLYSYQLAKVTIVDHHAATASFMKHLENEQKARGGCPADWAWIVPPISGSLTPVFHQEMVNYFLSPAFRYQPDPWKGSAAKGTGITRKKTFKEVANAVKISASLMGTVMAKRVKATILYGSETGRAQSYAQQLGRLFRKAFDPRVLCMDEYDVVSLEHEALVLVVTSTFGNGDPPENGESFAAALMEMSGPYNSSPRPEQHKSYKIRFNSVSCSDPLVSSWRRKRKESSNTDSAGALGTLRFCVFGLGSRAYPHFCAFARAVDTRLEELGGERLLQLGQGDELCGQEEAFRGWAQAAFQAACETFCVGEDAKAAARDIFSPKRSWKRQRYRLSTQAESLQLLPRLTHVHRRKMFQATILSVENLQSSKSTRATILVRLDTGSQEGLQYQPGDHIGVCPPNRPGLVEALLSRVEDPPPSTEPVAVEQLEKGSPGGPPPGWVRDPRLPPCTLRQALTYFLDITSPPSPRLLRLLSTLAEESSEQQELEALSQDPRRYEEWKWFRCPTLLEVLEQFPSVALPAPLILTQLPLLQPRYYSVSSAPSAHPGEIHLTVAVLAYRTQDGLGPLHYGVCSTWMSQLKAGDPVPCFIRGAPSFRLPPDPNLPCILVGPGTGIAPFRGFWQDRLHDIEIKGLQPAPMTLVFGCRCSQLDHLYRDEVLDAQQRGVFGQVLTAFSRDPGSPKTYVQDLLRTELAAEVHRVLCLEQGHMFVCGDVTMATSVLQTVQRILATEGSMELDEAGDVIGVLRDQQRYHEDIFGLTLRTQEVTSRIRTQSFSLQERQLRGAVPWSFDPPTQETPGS

nNOS (Rat) = nNOS (Rat) (Rattus norvegicus, UniProt P29476); assay: nNOS (Rat) enzyme assay; settings: for IC50: read-out: nNOS IC50 (rodent data in parentheses); for Selectivity eNOS/nNOS (rodent data in parentheses): rodent enzymes
Protocol: (§1) nNOS (Rat), eNOS (Rat) and iNOS (Mouse) Enzyme Assay Recombinant rat or mouse NO synthases (iNOS, eNOS, nNOS) were expressed in Sf9 cells (Sigma), 36 mg prot/ml (Bradford). […] Inhibition of NOS was determined by measuring the formation of L-[3H] citrulline from L-[3H] arginine. […] Stop buffer:100 mM Hepes, pH 5.5, 3 mM EDTA, 3 mM EGTA.

[1] = molecular target: Nitric oxide synthase (endothelial, human recombinant) eNOS (Homo sapiens, UniProt P29474); assay: Human eNOS enzyme assay ([3H]L-arginine to [3H]L-citrulline); settings: read-out: heNOS IC50
Sequence of Nitric oxide synthase (endothelial, human recombinant) eNOS (P29474 2-1203): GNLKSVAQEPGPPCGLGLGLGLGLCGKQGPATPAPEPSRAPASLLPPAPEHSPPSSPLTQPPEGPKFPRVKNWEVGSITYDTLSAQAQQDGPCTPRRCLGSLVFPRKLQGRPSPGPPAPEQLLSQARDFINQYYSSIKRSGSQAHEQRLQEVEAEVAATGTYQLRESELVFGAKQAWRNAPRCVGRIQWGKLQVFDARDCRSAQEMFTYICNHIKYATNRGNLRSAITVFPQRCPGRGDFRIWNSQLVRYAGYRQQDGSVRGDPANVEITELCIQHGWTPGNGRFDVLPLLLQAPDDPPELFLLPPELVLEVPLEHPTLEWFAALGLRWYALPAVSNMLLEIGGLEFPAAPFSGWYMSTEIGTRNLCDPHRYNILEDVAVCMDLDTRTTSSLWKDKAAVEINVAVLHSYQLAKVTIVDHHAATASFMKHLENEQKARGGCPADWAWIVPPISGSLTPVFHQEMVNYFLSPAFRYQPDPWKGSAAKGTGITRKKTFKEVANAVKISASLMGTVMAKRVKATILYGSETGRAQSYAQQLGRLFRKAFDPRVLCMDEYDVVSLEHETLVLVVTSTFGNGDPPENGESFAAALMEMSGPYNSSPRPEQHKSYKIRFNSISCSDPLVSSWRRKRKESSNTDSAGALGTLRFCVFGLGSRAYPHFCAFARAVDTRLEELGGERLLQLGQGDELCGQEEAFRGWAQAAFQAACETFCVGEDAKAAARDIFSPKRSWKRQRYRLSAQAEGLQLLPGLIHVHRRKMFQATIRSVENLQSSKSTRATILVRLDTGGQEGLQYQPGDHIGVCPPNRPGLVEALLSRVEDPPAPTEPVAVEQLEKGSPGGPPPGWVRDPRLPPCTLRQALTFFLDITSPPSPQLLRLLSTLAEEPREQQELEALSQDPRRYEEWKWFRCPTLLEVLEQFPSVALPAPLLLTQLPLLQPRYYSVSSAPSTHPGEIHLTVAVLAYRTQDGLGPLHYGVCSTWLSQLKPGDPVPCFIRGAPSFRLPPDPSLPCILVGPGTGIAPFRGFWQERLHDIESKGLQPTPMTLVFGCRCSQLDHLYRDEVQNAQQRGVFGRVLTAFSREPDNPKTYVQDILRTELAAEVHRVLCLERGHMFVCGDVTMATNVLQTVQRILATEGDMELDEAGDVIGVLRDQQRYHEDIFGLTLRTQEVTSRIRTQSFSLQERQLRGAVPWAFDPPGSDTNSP

[2] = molecular target: Recombinant human inducible NOS (iNOS) (Homo sapiens, UniProt P35228); assay: Human iNOS enzyme assay, radiometric; settings: read-out: hiNOS IC50
Sequence of Recombinant human inducible NOS (iNOS) (P35228 whole entry): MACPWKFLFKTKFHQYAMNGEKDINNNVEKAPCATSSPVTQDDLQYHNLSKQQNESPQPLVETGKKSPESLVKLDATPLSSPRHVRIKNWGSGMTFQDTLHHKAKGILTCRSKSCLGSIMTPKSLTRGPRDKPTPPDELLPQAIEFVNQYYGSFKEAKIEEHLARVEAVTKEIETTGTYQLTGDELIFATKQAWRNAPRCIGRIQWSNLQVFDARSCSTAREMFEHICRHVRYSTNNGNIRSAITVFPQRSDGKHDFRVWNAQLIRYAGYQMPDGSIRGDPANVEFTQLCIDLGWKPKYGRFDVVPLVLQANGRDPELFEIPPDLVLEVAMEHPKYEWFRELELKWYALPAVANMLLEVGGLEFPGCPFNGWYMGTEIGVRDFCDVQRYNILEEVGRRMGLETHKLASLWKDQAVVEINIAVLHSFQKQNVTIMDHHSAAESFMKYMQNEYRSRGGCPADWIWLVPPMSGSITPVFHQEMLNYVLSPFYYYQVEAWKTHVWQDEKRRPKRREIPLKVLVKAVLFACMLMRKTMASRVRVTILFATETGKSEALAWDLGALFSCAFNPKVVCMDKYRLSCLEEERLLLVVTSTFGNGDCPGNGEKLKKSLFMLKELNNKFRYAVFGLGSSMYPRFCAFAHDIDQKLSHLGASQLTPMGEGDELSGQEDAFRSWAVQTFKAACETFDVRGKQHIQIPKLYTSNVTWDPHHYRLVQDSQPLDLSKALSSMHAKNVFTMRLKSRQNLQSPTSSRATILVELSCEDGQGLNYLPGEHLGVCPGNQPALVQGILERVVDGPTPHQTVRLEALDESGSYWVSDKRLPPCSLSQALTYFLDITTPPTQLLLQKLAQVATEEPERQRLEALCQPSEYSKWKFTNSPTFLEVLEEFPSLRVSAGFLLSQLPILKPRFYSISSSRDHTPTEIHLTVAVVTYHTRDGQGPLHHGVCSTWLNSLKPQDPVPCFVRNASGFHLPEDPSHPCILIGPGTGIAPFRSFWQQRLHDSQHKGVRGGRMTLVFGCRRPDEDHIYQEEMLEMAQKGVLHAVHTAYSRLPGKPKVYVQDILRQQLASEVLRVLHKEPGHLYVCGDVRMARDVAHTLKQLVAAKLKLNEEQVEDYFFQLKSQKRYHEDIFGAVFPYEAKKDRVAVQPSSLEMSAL

[3] = molecular target: Nitric oxide synthase (neuronal, human recombinant) nNOS (Homo sapiens, UniProt P29475); assay: Human nNOS enzyme assay ([3H]L-arginine to [3H]L-citrulline); settings: for Selectivity eNOS/nNOS: human enzymes, ratio of eNOS IC50 to nNOS IC50; for IC50: read-out: hnNOS IC50
Sequence of Nitric oxide synthase (neuronal, human recombinant) nNOS (P29475 whole entry): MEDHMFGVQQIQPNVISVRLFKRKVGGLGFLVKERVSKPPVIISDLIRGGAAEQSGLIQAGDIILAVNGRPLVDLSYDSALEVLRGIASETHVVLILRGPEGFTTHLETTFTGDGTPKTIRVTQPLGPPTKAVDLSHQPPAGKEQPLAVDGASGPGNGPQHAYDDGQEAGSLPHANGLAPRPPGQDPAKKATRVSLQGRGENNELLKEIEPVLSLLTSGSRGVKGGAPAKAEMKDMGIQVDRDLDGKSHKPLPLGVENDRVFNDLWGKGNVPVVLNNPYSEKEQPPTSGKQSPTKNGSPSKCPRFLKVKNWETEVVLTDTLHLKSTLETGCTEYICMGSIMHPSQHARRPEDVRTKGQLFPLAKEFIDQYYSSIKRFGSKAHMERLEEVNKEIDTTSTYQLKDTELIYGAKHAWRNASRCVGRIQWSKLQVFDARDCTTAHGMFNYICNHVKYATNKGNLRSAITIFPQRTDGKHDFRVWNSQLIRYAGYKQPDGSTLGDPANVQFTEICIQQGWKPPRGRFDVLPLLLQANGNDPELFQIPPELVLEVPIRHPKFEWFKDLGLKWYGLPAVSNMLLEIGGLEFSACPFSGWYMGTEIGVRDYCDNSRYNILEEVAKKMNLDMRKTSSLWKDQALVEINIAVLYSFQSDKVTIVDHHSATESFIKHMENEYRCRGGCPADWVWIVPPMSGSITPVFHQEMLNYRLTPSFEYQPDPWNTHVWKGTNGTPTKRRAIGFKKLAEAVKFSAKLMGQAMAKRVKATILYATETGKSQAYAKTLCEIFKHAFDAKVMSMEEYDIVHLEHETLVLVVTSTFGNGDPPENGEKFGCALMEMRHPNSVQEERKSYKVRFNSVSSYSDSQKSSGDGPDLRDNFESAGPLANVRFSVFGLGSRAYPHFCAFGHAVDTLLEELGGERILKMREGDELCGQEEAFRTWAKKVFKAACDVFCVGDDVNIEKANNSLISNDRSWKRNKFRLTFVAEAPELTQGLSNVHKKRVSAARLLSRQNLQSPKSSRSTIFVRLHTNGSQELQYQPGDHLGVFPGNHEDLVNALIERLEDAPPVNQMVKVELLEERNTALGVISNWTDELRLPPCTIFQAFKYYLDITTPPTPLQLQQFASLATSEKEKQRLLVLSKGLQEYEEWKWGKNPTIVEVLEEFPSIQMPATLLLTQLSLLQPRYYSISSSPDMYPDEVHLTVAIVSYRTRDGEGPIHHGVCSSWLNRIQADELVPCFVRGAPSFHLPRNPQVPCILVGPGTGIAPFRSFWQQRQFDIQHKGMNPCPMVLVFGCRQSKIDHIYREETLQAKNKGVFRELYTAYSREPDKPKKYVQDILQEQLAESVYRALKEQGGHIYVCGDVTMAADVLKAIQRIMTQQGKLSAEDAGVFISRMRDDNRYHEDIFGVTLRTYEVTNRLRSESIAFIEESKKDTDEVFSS

iNOS (Mouse) = iNOS (Mouse) (Mus musculus, UniProt P29477); assay: iNOS (Mouse) enzyme assay; settings: values in parentheses, read-out: iNOS IC50 (rodent data in parentheses)
Protocol: as §1, with “EGTA. Enzyme and inhibitor were pre-incubated for 35 min in the presence of NADPH before addition of arginine to initiate the reaction.” for “EGTA.”

[4] = human recombinant eNOS, values without parentheses
[5] = human recombinant nNOS, values without parentheses
[6] = rat nNOS, values in parentheses
[7] = human recombinant iNOS, values without parentheses

| SMILES | IC50 (eNOS (Rat)) [µM] | IC50 (nNOS (Rat)) [µM] | Selectivity eNOS/nNOS (rodent data in parentheses) (nNOS (Rat); values in parentheses) | IC50 [1, 4] [µM] | IC50 [2] [µM] | Selectivity eNOS/nNOS [3] | IC50 [3, 5] [µM] | IC50 (iNOS (Mouse)) [µM] | IC50 (nNOS (Rat); [6]) [µM] | IC50 [2, 7] | IC50 [1] [µM] | IC50 [3] [µM] |
| --- | --- | --- | --- | --- | --- | --- | --- | --- | --- | --- | --- | --- |
| CN1CCCC1CCN1CCCc2cc(NC(=N)c3cccs3)ccc21 (single isomer, unassigned) [Example 24, N-(1-(2-(1-Methylpyrrolidin-2-yl)ethyl)-1,2,3,4-tetrahydroquinolin-6-yl)thiophene-2-carboximidamide] | 22 | 0.12 | (183) | 15.4 | 33.2 | 91.7 | 0.17 | > 100 |  |  |  |  |
| CN1CCC(N2CCCc3cc(NC(=N)c4cccs4)ccc32)C1 (single isomer, unassigned) [Example 56, N-(1-(1-Methylpyrrolidin-3-yl)-1,2,3,4-tetrahydroquinolin-6-yl)thiophene-2-carboximidamide] | 4.5 |  |  | 18.3 |  | 203 | 0.09 |  | 0.087 | 34 µM |  |  |
| CN1CCC(N2CCCc3cc(NC(=N)c4cccs4)ccc32)C1 (single isomer, unassigned) [Example 57, N-(1-(1-Methylpyrrolidin-3-yl)-1,2,3,4-tetrahydroquinolin-6-yl)thiophene-2-carboximidamide] | > 100 |  |  | 199 |  | 622 | 0.32 |  | 0.504 | 40.4 µM |  |  |
| N=C(Nc1ccc2c(c1)CCCN2C1CCNC1)c1cccs1 (single isomer, unassigned; (+)) [Example 66, (+)-N-(1-(pyrrolidin-3-yl)-1,2,3,4-tetrahydroquinolin-6-yl)thiophene-2-carboximidamide dihydrochloride] |  |  |  | 14.2 |  |  | 0.01 | 2.9 | 0.1 |  |  |  |
| N=C(Nc1ccc2c(c1)CCCN2C1CCNC1)c1cccs1 (single isomer, unassigned; (-)) [Example 65, (−)-N-(1-(pyrrolidin-3-yl)-1,2,3,4-tetrahydroquinolin-6-yl)thiophene-2-carboximidamide dihydrochloride] | 9.08 |  |  | 22.5 |  |  | 0.31 | 7.5 | 0.28 |  |  |  |
| N=C(Nc1ccc2c(c1)CCC(=O)N2CCN1CCCCC1)c1cccs1 [Example 1, N-(2-oxo-1-(2-(piperidin-1-yl)ethyl)-1,2,3,4-tetrahydroquinolin-6-yl)thiophene-2-carboximidamide] | 52 |  |  |  |  |  |  | 8.5 | 0.022 | 39 µM | 25.2 | 0.78 |
| Cl.Cl.N=C(Nc1ccc2c(c1)CCCN2CCN1CCCC1)c1cccs1 [Example 12, N-(1-(2-(pyrrolidin-1-yl)ethyl)-1,2,3,4-tetrahydroquinolin-6-yl)thiophene-2-carboximidamide dihydrochloride] | > 100 |  |  | 36 |  | 115 | 0.31 | > 100 | 1.9 |  |  |  |
| CN1CCCC1CCN1CCCc2cc(NC(=N)c3cccs3)ccc21 (centres unmarked) [Example 14, N-(1-(2-(1-methylpyrrolidin-2-yl)ethyl)-1,2,3,4-tetrahydroquinolin-6-yl)thiophene-2-carboximidamide] | 35 | 0.17 | (206) | 17.4 | > 100 | 137 |  | > 100 |  |  |  |  |
| N=C(Nc1ccc2c(c1)CCCCN2CCN1CCCC1)c1cccs1 [Example 27, N-(1-(2-(Pyrrolidin-1-yl)ethyl)-2,3,4,5-tetrahydro-1H-benzo[b]azepin-7-yl)thiophene-2-carboximidamide] | 42.1 |  | (523) | 48.7 | 54.4 | 138 | 0.35 | > 100 | 0.092 |  |  |  |
| N=C(Nc1ccc2c(c1)CCCN2C1CCNC1)c1cccs1 (centres unmarked) [Example 29, N-(1-(Pyrrolidin-3-yl)-1,2,3,4-tetrahydroquinolin-6-yl)thiophene-2-carboximidamide dihydrochloride] | > 100 |  |  |  |  |  |  | > 100 | 0.15 | 15.6 µM and 6.94 µM | 23.5 | 0.25 |
| CN1CCC(N2CCCc3cc(NC(=N)c4cccs4)ccc32)C1 (centres unmarked) [Example 35, N-(1-(1-Methylpyrrolidin-3-yl)-1,2,3,4-tetrahydroquinolin-6-yl)thiophene-2-carboximidamide] |  |  |  |  |  |  |  |  |  | 4.9 µM | 27.5 | 0.36 |
| N=C(Nc1ccc2c(c1)CCCC(=O)N2CCN1CCCCC1)c1cccs1 [Example 38, N-(2-Oxo-1-(2-(piperidin-1-yl)ethyl)-2,3,4,5-tetrahydro-1H-benzo[b]azepin-7-yl)thiophene-2-carboximidamide] |  |  |  | 148 |  | 14.8 | 10 |  |  | 8.21 µM |  |  |
| CN1CCC(N2CCCCc3cc(NC(=N)c4cccs4)ccc32)CC1 [Example 39, N-(1-(1-Methylpiperidin-4-yl)-2,3,4,5-tetrahydro-1H-benzo[b]azepin-7-yl)thiophene-2-carboximidamide] |  |  |  |  | 1.34 |  |  |  |  |  | 20 | 2.96 |
| N=C(Nc1ccc2c(c1)CCCCN2CCN1CCCCC1)c1cccs1 [Example 40, N-(1-(2-(Piperidin-1-yl)ethyl)-2,3,4,5-tetrahydro-1H-benzo[b]azepin-7-yl)thiophene-2-carboximidamide] |  |  |  |  |  |  | 1.9 |  |  | > 100 µM | 56.3 |  |
| CN(C)CCN1C(=O)CCc2cc(NC(=N)c3cccs3)cc(F)c21 [Example 41, N-(1-(2-(Dimethylamino)ethyl)-8-fluoro-2-oxo-1,2,3,4-tetrahydroquinolin-6-yl)thiophene-2-carboximidamide] |  |  |  |  |  |  | 3.3 |  |  | 3.27 µM | 194 |  |
| CN(C)CCN1CCCc2cc(NC(=N)c3cccs3)cc(F)c21 [Example 42, N-(1-(2-(Dimethylamino)ethyl)-8-fluoro-1,2,3,4-tetrahydroquinolin-6-yl)thiophene-2-carboximidamide] |  |  |  |  |  |  | 0.09 |  |  | > 100 µM | 24.3 |  |
| N=C(Nc1ccc2c(c1)C(C1CCNC1)C(=O)N2)c1cccs1 (centres unmarked) [Example 43, N-(2-Oxo-3-(pyrrolidin-3-yl)indolin-5-yl)thiophene-2-carboximidamide] |  |  |  | 27.4 |  | 152 | 0.18 |  |  | 7.03 µM |  |  |
| N=C(Nc1ccc2c(c1)CCCCN2C1CCNC1)c1cccs1 (centres unmarked) [Example 48, N-(1-(Pyrrolidin-3-yl)-2,3,4,5-tetrahydro-1H-benzo[b]azepin-7-yl)thiophene-2-carboximidamide] |  |  |  |  |  |  |  |  |  | 0.61 µM | 75 | 0.33 |
| CN1CCCC1CCN1CCCc2cc(NC(=N)c3cccs3)cc(F)c21.Cl.Cl (centres unmarked) [Example 55, N-(8-Fluoro-1-(2-(1-methylpyrrolidin-2-yl)ethyl)-1,2,3,4-tetrahydroquinolin-6-yl)thiophene-2-carboximidamide dihydrochloride] |  |  |  | 14.5 |  | 181 | 0.08 |  |  | > 100 µM |  |  |
| N=C(Nc1ccc2c(c1)CCCCN2C1CCNCC1)c1cccs1 [Example 58, N-(1-(piperidin-4-yl)-2,3,4,5-tetrahydro-1H-benzo[b]azepin-7-yl)thiophene-2-carboximidamide] |  |  |  |  |  |  | 2.3 |  |  | > 100 µM | 66.3 |  |
| CN(C)CCCN1CCCc2cc(NC(=N)c3cccs3)ccc21 [Example 59, N-(1-(3-(Dimethylamino)propyl)-1,2,3,4-tetrahydroquinolin-6-yl)thiophene-2-carboximidamide] |  |  |  |  |  |  | 0.27 |  |  | 34.5 µM | 22.4 |  |
| CCNCCN1CCCc2cc(NC(=N)c3cccs3)ccc21 [Example 60, N-(1-(2-(Ethylamino)ethyl)-1,2,3,4-tetrahydroquinolin-6-yl)thiophene-2-carboximidamide] | > 100 |  | (>227) | 52.8 |  | 135 | 0.39 |  | 0.44 | 16.6 µM |  |  |
| CN(CCO)CCN1CCCc2cc(NC(=N)c3cccs3)ccc21 [Example 62, N-(1-(2-((2-Hydroxyethyl)(methyl)amino)ethyl)-1,2,3,4-tetrahydroquinolin-6-yl)thiophene-2-carboximidamide] |  |  |  | 63.9 |  | 492 | 0.13 | 7 | 0.94 |  |  |  |
